Data set [1] in a line: logP determination by HPLC, reversed-phase column (C 18), EEC Directive 79/831 Annex V.A8. The source says:
(a) Mobile phases for the determination in the acidic range: 0.1% aqueous phosphoric acid, acetonitrile; linear gradient from 10% acetonitrile to 90% acetonitrile—the corresponding measurement results are labelled in Table 1 with ^a).
(b) Mobile phases for the determination in the neutral range: 0.01 molar aqueous phosphate buffer solution, acetonitrile; linear gradient from 10% acetonitrile to 90% acetonitrile—the corresponding measurement results are labelled in Table 1 with ^b).

In data set [2] the test system is weeds. Nature of the data set: Pre-Emergence Test (Example A), activity against weeds. The class given is in vivo. The conditions noted are these: soil sprayed about 24 hours after sowing, rated after three weeks. The source says: (§1) Solvent: 5 parts by weight of acetone
(§2) Emulsifier: 1 part by weight of alkylaryl polyglycol ether
(§3) Seeds of the test plants are sown in normal soil.
0%=no effect (like untreated control)

Data set [3] deals with crop plants, such as, for example, barley, wheat, rapeseed, soya and sugar beet. Nature of the data set: Pre-Emergence Test (Example A), tolerance by crop plants. The data set is classed as in vivo.
Source text: as §1, §2, §3

Data set [4] concerns weeds. In words: Post-Emergence Test (Example B), activity against weeds. The class given is in vivo. The conditions noted are these: test plants of a height of 5-15 cm sprayed, rated after three weeks.
Source text: as §1, §2
(§4) After three weeks, the degree of damage to the plants is rated in % damage in comparison to the development of the untreated control.

For data set [5], the system named is crop plants, such as, for example, barley and wheat. Nature of the data set: Post-Emergence Test (Example B), tolerance by crop plants.
Source text: as §1, §2, §4

Where [6] appears, read: a) acidic range: 0.1% aqueous phosphoric acid, acetonitrile gradient, HPLC C 18, 43° C.
Where [7] appears, read: pre-emergence, barley, wheat, rapeseed, soya and sugar beet, rated after three weeks.

The values below come from patent US6608004B2, “Substituted 2-aryl-1,2,4-triazine-3,5-di(thi)ones” (priority 1999, dated 2003).

Like-named read-outs stand apart in the source and are kept apart here.

Regarding `CCS(=O)(=O)N(C(=O)CC(C)(C)C)c1cc(-n2ncc(=O)n(C)c2=O)c(F)cc1C#N` [Example 19], the “logP a)” value in data set [1] is reported as “logP = 2.94^a)”. For the same molecule, the “activity against weeds (degree of damage)” value (“activity against weeds” for short) in the data set with weeds [2] and in the data set on weeds [4] was “very strong activity” throughout. The “tolerance by crop plants” value in data set [3] (in vivo) and in data set [5] (in vivo) was “essentially being tolerated well” each time.
As to `C=CC(=O)N(c1cc(-n2ncc(=O)n(CCF)c2=O)c(F)cc1C#N)S(=O)(=O)CCC` [Example 64], the “logP a)” value in data set [1] (setting [6]) was “m.p.: 142 °C logP = 2.46^a)”.
As to `CCS(=O)(=O)N(C(=O)c1ccco1)c1cc(-n2ncc(=O)n(C)c2=O)c(F)cc1C#N` [Example 14], in data set [1], the “logP a)” value is “m.p.: 90 °C logP = 2.31^a)”. Besides, the “activity against weeds” value with weeds [2] and with weeds [4] was “very strong activity” each time. Also, the “tolerance by crop plants” value in data set [3] (in vivo) and in data set [5] (in vivo) was “essentially being tolerated well” in each case.
For the molecule `CCS(=O)(=O)N(C(=O)c1ccc(F)cc1)c1cc(-n2ncc(=O)n(C)c2=O)c(F)cc1C#N` [Example 26], the “logP a)” value in data set [1] was “m.p.: 123 °C logP = 2.60^a)”. Besides, the “activity against weeds” value with weeds [2] and in the data set with weeds [4] was “very strong activity” each time. For the same molecule, the “tolerance by crop plants” value in data set [3] (in vivo) and in data set [5] (in vivo) was “essentially being tolerated well” throughout.
`CCS(=O)(=O)N(C(=O)COc1ccccc1Cl)c1cc(-n2ncc(=O)n(C)c2=O)c(F)cc1C#N` [Example 35]: in data set [1], the “logP a)” value was “m.p.: 220 °C logP = 2.89^a)”. Besides, the “activity against weeds” value with weeds [2] and with weeds [4] was “very strong activity” throughout. Further, the “tolerance by crop plants” value in data set [3] (in vivo) and in data set [5] (in vivo) was “essentially being tolerated well” in each case.
For `CCS(=O)(=O)N(C(=O)c1snnc1C)c1cc(-n2ncc(=O)n(C)c2=O)c(F)cc1C#N` [Example 68], the “logP a)” value in data set [1] is “m.p.: 189 °C logP = 1.73^a)”.
In the case of `CCS(=O)(=O)N(C(=O)CC(C)C)c1cc(-n2ncc(=O)n(C)c2=O)c(F)cc1C#N` [Example 20], the “logP a)” value in data set [1] is recorded as “logP = 2.65^a)”. Also, the “activity against weeds” value in the data set on weeds [2] and with weeds [4] was “very strong activity” in each case. Further, the “tolerance by crop plants” value in data set [3] (in vivo) and in data set [5] (in vivo) was “essentially being tolerated well” throughout.
For `CCS(=O)(=O)N(C(=O)CC(c1ccccc1)c1ccccc1)c1cc(-n2ncc(=O)n(C)c2=O)c(F)cc1C#N` [Example 78], the “logP a)” value in data set [1] was “m.p.: 183 °C logP = 3.48^a)”.
In the case of `CCS(=O)(=O)N(C(=O)COC)c1cc(-n2ncc(=O)n(C)c2=O)c(F)cc1C#N` [Example 25], the “logP a)” value in data set [1] is given as “logP = 1.82^a)”. Besides, the “activity against weeds” value with weeds [2] and in the data set on weeds [4] was “very strong activity” each time. Moreover, the “tolerance by crop plants” value in data set [3] (in vivo) and in data set [5] (in vivo) was “essentially being tolerated well” in each case.
As for `CCS(=O)(=O)N(C(=O)C(C)(C)C)c1cc(-n2ncc(=O)n(C)c2=O)c(F)cc1C#N` [Example 10], in data set [1], the “logP a)” value was “logP = 2.71^a)”. The “activity against weeds” value in the data set with weeds [2] and in the data set on weeds [4] was “very strong activity” each time. Further, the “tolerance by crop plants” value in data set [3] (in vivo) and in data set [5] (in vivo) was “essentially being tolerated well” throughout.
On to `CCS(=O)(=O)N(C(=O)Oc1ccc(F)cc1)c1cc(-n2ncc(=O)n(C)c2=O)c(F)cc1C#N` [Example 74], for which, in data set [1], the “logP a)” value is “m.p.: 202 °C logP = 2.85^a)”.
`CCS(=O)(=O)N(C(=O)COc1ccccc1)c1cc(-n2ncc(=O)n(C)c2=O)c(F)cc1C#N` [Example 43]: the “logP a)” value in data set [1] was “m.p.: 222 °C logP = 2.96^a)”. Further, the “activity against weeds” value in the data set on weeds [2] and in the data set on weeds [4] was “very strong activity” each time. The “tolerance by crop plants” value in data set [3] (in vivo) and in data set [5] (in vivo) was “essentially being tolerated well” in each case.
Regarding `CCS(=O)(=O)N(C(=O)Cc1ccccc1OC)c1cc(-n2ncc(=O)n(C)c2=O)c(F)cc1C#N` [Example 80], the “logP a)” value in data set [1] was “m.p.: 140 °C logP = 2.70^a)”.
Turning to `CCS(=O)(=O)N(C(=O)N1CCCC1)c1cc(-n2ncc(=O)n(C)c2=O)c(F)cc1C#N` [Example 69], the “logP a)” value in data set [1] is “m.p.: 192 °C logP = 2.05^a)”.
On to `CCS(=O)(=O)N(C(=O)Cc1ccc(F)cc1F)c1cc(-n2ncc(=O)n(C)c2=O)c(F)cc1C#N` [Example 36], for which, in data set [1], the “logP a)” value was “m.p.: 210 °C logP = 2.73^a)”. For the same molecule, the “activity against weeds” value with weeds [2] and in the data set on weeds [4] was “very strong activity” in each case. Also, the “tolerance by crop plants” value in data set [3] (in vivo) and in data set [5] (in vivo) was “essentially being tolerated well” throughout.
Regarding `C=CC(=O)N(c1cc(-n2ncc(=O)n(CCF)c2=O)c(F)cc1C#N)S(=O)(=O)CC` [Example 65], the “logP a)” value in data set [1] (setting [6]) was “m.p.: 83 °C logP = 2.14^a)”.
On to `CCS(=O)(=O)N(C(=O)CCCCCl)c1cc(-n2ncc(=O)n(C)c2=O)c(F)cc1C#N` [Example 22], for which the “logP a)” value in data set [1] is listed as “logP = 2.65^a)”. The “activity against weeds” value with weeds [2] and in the data set on weeds [4] was “very strong activity” each time. The “tolerance by crop plants” value in data set [3] (in vivo) and in data set [5] (in vivo) was “essentially being tolerated well” throughout.
As for `CCC(Oc1ccccc1)C(=O)N(c1cc(-n2ncc(=O)n(C)c2=O)c(F)cc1C#N)S(=O)(=O)CC` (racemic) [Example 33], the “logP a)” value in data set [1] is “m.p.: 128 °C logP = 3.12^a)”. The “activity against weeds” value with weeds [2] and in the data set with weeds [4] was “very strong activity” throughout. In addition, the “tolerance by crop plants” value in data set [3] (in vivo) and in data set [5] (in vivo) was “essentially being tolerated well” in each case.
On to `CCS(=O)(=O)N(C(=O)C1CCCC1)c1cc(-n2ncc(=O)n(C)c2=O)c(F)cc1C#N` [Example 47], for which the “logP a)” value in data set [1] is “m.p.: 93 °C logP = 2.66^a)”. Further, the “activity against weeds” value in the data set with weeds [2] and in the data set with weeds [4] was “very strong activity” each time. The “tolerance by crop plants” value in data set [3] (in vivo) and in data set [5] (in vivo) was “essentially being tolerated well” in each case.
For `C/C=C/C(=O)N(c1cc(-n2ncc(=O)n(C)c2=O)c(F)cc1C#N)S(=O)(=O)CC` [Example 18], the “logP a)” value in data set [1] (setting [6]) is “m.p.: 153 °C logP = 2.16^a)”. The “activity against weeds” value in the data set with weeds [2] and in the data set on weeds [4] was “very strong activity” in each case. For the same molecule, the “tolerance by crop plants” value in data set [3] (setting [7]) is reported as “essentially being tolerated well”; in data set [5] (post-emergence, barley and wheat, rated after three weeks) it was “essentially being tolerated well”.
Take `CCS(=O)(=O)N(C(=O)/C=C/c1ccc2c(c1)OCO2)c1cc(-n2ncc(=O)n(C)c2=O)c(F)cc1C#N` [Example 77]: the “logP a)” value in data set [1] (setting [6]) was “m.p.: 141 °C logP = 2.72^a)”.
As to `CCS(=O)(=O)N(C(=O)c1cn(C)nc1C(F)(F)F)c1cc(-n2ncc(=O)n(C)c2=O)c(F)cc1C#N` [Example 67], in data set [1], the “logP a)” value is “m.p.: 199 °C logP = 2.54^a)”.
Consider `C/C=C/C(=O)N(c1cc(-n2ncc(=O)n(CCF)c2=O)c(F)cc1C#N)S(C)(=O)=O` [Example 63], for which the “logP a)” value in data set [1] (setting [6]) is “m.p.: 85 °C logP = 2.12^a)”.
In the case of `CCS(=O)(=O)N(C(=O)C1CCc2ccccc2O1)c1cc(-n2ncc(=O)n(C)c2=O)c(F)cc1C#N` (racemic) [Example 38], the “logP a)” value in data set [1] was “m.p.: 115 °C logP = 2.93^a)”.
Take `CCS(=O)(=O)N(C(=O)C(C)c1c(Cl)cccc1Cl)c1cc(-n2ncc(=O)n(C)c2=O)c(F)cc1C#N` (racemic) [Example 34]: the “logP a)” value in data set [1] (setting [6]) is “m.p.: 159 °C logP = 3.07^a)”.
With `CCS(=O)(=O)N(C(=O)CCCc1ccc(OC)cc1)c1cc(-n2ncc(=O)n(C)c2=O)c(F)cc1C#N` [Example 76], in data set [1], the “logP a)” value is “logP = 3.03^a)”.
With `CCS(=O)(=O)N(C(=O)Cc1cc(OC)ccc1OC)c1cc(-n2ncc(=O)n(C)c2=O)c(F)cc1C#N` [Example 81], the “logP a)” value in data set [1] was “m.p.: 192 °C logP = 2.66^a)”.
With `CCS(=O)(=O)N(C(=O)c1ccc(OC)cc1)c1cc(-n2ncc(=O)n(C)c2=O)c(F)cc1C#N` [Example 11], the “logP a)” value in data set [1] was “m.p.: 94 °C logP = 2.77^a)”. In addition, the “activity against weeds” value in the data set on weeds [2] is on record as “very strong activity”. For the same molecule, the “tolerance by crop plants” value in data set [3] (setting [7]) is “essentially being tolerated well”.
As for `C=CC(=O)N(c1cc(-n2ncc(=O)n(CCF)c2=O)c(F)cc1C#N)S(C)(=O)=O` [Example 62], in data set [1] (setting [6]), the “logP a)” value is “m.p.: 142 °C logP = 1.93^a)”.
For the molecule `CCS(=O)(=O)N(C(=O)Cc1cccc(OC)c1)c1cc(-n2ncc(=O)n(C)c2=O)c(F)cc1C#N` [Example 82], the “logP a)” value in data set [1] was “m.p.: 158 °C logP = 2.63^a)”.
On the same count and under the same terms, then `CCS(=O)(=O)N(C(=O)N(C(C)C)C(C)C)c1cc(-n2ncc(=O)n(C)c2=O)c(F)cc1C#N` [Example 71], with “m.p.: 188 °C logP = 2.92^a)”.
